# Experimental data as given in patent US8247211B2, “Glycopeptide antibiotics” (American Cyanamid Company, priority 2001, dated 2012).
# How the values were obtained:
# [1] = Anatomic pathology (heart and kidney histopathology) in mice; assay type: in vivo, CD-1 mice; details: 20 mg/kg intravenously daily for 9 days, microscopic histopathology on day 10
# In short: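 Juvenile CD-1 mice (20 days old; 5 vehicle, 5 treated) received glycopeptide antibiotic 20 mg/kg i.v. daily for 9 days. Necropsied tissues formalin-fixed, paraffin-embedded, H&E stained and examined microscopically; findings graded slight to severe versus controls.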
# Enterococcus sp. = assay: In vitro antibacterial evaluation: minimum inhibitory concentration (MIC), broth dilution method; assay type: cell-based
# In short: (§1)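 Test strains, among them recent clinical isolates carrying methicillin, penicillin and/or vancomycin resistance, were inoculated at 5×10^5 CFU/mL. A broth dilution series spanning 64-0.06 μg/mL in Muller-Hinton II […] (NCCLS M7-A2) defined the MIC as the lowest growth-inhibiting concentration.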
# Streptococcus sp. = assay: as above; assay type: cell-based
# In short: as §1
# Staphylococcus sp. = assay: as above; assay type: cell-based; details: 18 hours at 35° C.
# In short: as §1
# Escherichia coli = assay: as above; assay type: cell-based
# In short: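 First, organisms are seeded at 5×10^5 CFU/mL into Muller-Hinton II […]. Next, antibiotic is applied across 64-0.06 μg/mL by broth dilution (NCCLS M7-A2). Finally, the lowest inhibitory concentration is recorded as MIC.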
# [2] = tested on: Staphylococcus aureus-SMITH (GC 4543); assay: Acute lethal infection in mice (ED50); assay type: in vivo; details: female CD-1 mice, intraperitoneal challenge, intravenous dose 30 min. after infection, 7 day survival ratios
# In short: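 Female CD-1 mice challenged intraperitoneally with a bacterial dose lethal to untreated controls within 24-48 h. Compound given intravenously in saline or 5% dextrose 30 min post-infection, five mice per dose; ED50 from 7-day survival pooled over 3 tests.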
# [3] = broth dilution, inoculum 5×10^5 CFU/mL, 18 hours at 35° C.
compound,measurement,setting,value
"COc1ccc2cc(COC3C(CO)OC(OC4C(CO)OC(Oc5ccc(CC6NC(=O)C(C(C)c7ccccc7)NC(=O)CNC(=O)C(CO)NC(=O)C(CC7CNC(=N)N7C7OC(CO)C(O)C(O)C7O)NC(=O)C(CC7CNC(=N)N7)NC6=O)cc5)C(O)C4O)C(O)C3O)ccc2c1 (stereo not drawn) [Example 245a, Cyclo[3-(2-iminoimidazolidin-4-yl)alanyl-3-(3-hexopyranosyl-2-iminoimidazolidin-4-yl)-alanylserylglycyl-β-methylphenylalanyl-O-[4-O-[4-O-[(6-methoxy-2-naphthyl)methyl]-hexopyranosyl]hexopyranosyl]tyrosyl]]","Anatomical Pathology (Day 10), Heart",[1],+
same,"Anatomical Pathology (Day 10), Kidney",[1],+++
same,MIC Enterococcus avium (GC 4558),"Enterococcus sp.; Enterococcus avium (GC 4558), 18 hours at 35° C.",4 µg/mL
same,MIC Enterococcus faecalis (ATCC 29212),"Enterococcus sp.; Enterococcus faecalis (ATCC 29212), 18 hours at 35° C.",8 µg/mL
same,MIC Enterococcus faecalis (GC 2242),"Enterococcus sp.; Enterococcus faecalis (GC 2242), 18 hours at 35° C.",4 µg/mL
same,MIC Enterococcus faecalis (GC 2691),"Enterococcus sp.; Enterococcus faecalis (GC 2691), 18 hours at 35° C.",8 µg/mL
same,MIC Enterococcus faecalis (GC 3059),"Enterococcus sp.; Enterococcus faecalis (GC 3059), 18 hours at 35° C.",4 µg/mL
same,MIC Enterococcus faecalis (GC 4552),"Enterococcus sp.; Enterococcus faecalis (GC 4552), 18 hours at 35° C.",8 µg/mL
same,MIC Enterococcus faecalis (GC 4553),"Enterococcus sp.; Enterococcus faecalis (GC 4553), 18 hours at 35° C.",4 µg/mL
same,MIC Enterococcus faecalis (GC 4554),"Enterococcus sp.; Enterococcus faecalis (GC 4554), 18 hours at 35° C.",8 µg/mL
same,MIC Enterococcus faecalis (GC 6189),"Enterococcus sp.; Enterococcus faecalis (GC 6189), 18 hours at 35° C.",8 µg/mL
same,MIC Enterococcus faecium (GC 2243),"Enterococcus sp.; Enterococcus faecium (GC 2243), 18 hours at 35° C.",4 µg/mL
same,MIC Enterococcus faecium (GC 4556),"Enterococcus sp.; Enterococcus faecium (GC 4556), 18 hours at 35° C.",4 µg/mL
same,MIC Enterococcus faecium (GC 4557),"Enterococcus sp.; Enterococcus faecium (GC 4557), 18 hours at 35° C.",2 µg/mL
same,MIC Enterococcus faecalis (GC 2242),Enterococcus sp.; [3],4 µg/mL
same,MIC Enterococcus faecalis (GC 2691),Enterococcus sp.; [3],8 µg/mL
same,MIC Enterococcus faecalis (GC 3059),Enterococcus sp.; [3],4 µg/mL
same,MIC Streptococcus agalactiae (GC 4564),"Streptococcus sp.; Streptococcus agalactiae (GC 4564), 18 hours at 35° C.",1 µg/mL
same,MIC Streptococcus pneumoniae (ATCC 6301),"Streptococcus sp.; Streptococcus pneumoniae (ATCC 6301), 18 hours at 35° C.",0.5 µg/mL
same,MIC Streptococcus pneumoniae (GC 1894),"Streptococcus sp.; Streptococcus pneumoniae (GC 1894), 18 hours at 35° C.",<0.12 µg/mL
same,MIC Streptococcus pneumoniae (GC 4565),"Streptococcus sp.; Streptococcus pneumoniae (GC 4565), 18 hours at 35° C.",1 µg/mL
same,MIC Streptococcus pyogenes (GC 4563),"Streptococcus sp.; Streptococcus pyogenes (GC 4563), 18 hours at 35° C.",1 µg/mL
same,MIC Streptococcus agalactiae (GC 4564),Streptococcus sp.; [3],1 µg/mL
same,MIC Streptococcus pneumoniae (ATCC 6301),Streptococcus sp.; [3],0.5 µg/mL
same,MIC Streptococcus pneumoniae (GC 1894),Streptococcus sp.; [3],<0.12 µg/mL
same,MIC Streptococcus pneumoniae (GC 4565),Streptococcus sp.; [3],1 µg/mL
same,MIC Streptococcus pyogenes (GC 4563),Streptococcus sp.; [3],1 µg/mL
same,MIC Coagulase Negative Staphylococcus (GC 4547),Staphylococcus sp.; Coagulase Negative Staphylococcus (GC 4547),2 µg/mL
same,MIC Coagulase Negative Staphylococcus (GC 4548),Staphylococcus sp.; Coagulase Negative Staphylococcus (GC 4548),1 µg/mL
same,MIC Coagulase Negative Staphylococcus (GC 4549),Staphylococcus sp.; Coagulase Negative Staphylococcus (GC 4549),0.5 µg/mL
same,MIC Coagulase Negative Staphylococcus (GC 4551),Staphylococcus sp.; Coagulase Negative Staphylococcus (GC 4551),2 µg/mL
same,MIC Coagulase Negative Staphylococcus (GC 6257),Staphylococcus sp.; Coagulase Negative Staphylococcus (GC 6257),1 µg/mL
same,MIC Staphylococcus aureus (ATCC 29213),Staphylococcus sp.; Staphylococcus aureus (ATCC 29213),2 µg/mL
same,MIC Staphylococcus aureus (GC 1131),Staphylococcus sp.; Staphylococcus aureus (GC 1131),4 µg/mL
same,MIC Staphylococcus aureus (GC 3051),Staphylococcus sp.; Staphylococcus aureus (GC 3051),2 µg/mL
same,MIC Staphylococcus aureus (GC 3053),Staphylococcus sp.; Staphylococcus aureus (GC 3053),2 µg/mL
same,MIC Staphylococcus aureus (GC 4541),Staphylococcus sp.; Staphylococcus aureus (GC 4541),2 µg/mL
same,MIC Staphylococcus aureus (GC 4542),Staphylococcus sp.; Staphylococcus aureus (GC 4542),2 µg/mL
same,MIC Staphylococcus aureus (GC 4544),Staphylococcus sp.; Staphylococcus aureus (GC 4544),2 µg/mL
same,MIC Staphylococcus aureus (GC 4545),Staphylococcus sp.; Staphylococcus aureus (GC 4545),2 µg/mL
same,MIC Staphylococcus aureus-SMITH (GC 4543),Staphylococcus sp.; Staphylococcus aureus-SMITH (GC 4543),2 µg/mL
same,MIC Staphylococcus haemolyticus (GC 4546),Staphylococcus sp.; Staphylococcus haemolyticus (GC 4546),1 µg/mL
same,MIC Escherichia coli (ATCC 25922),"Escherichia coli; Escherichia coli (ATCC 25922), 18 hours at 35° C.",32 µg/mL
same,MIC Escherichia coli (GC 4559),"Escherichia coli; Escherichia coli (GC 4559), 18 hours at 35° C.",32 µg/mL
same,MIC Escherichia coli (GC 4560),"Escherichia coli; Escherichia coli (GC 4560), 18 hours at 35° C.",2 µg/mL
same,"median effective dose (ED50), Staphylococcus aureus-SMITH (GC 4543)",[2],1 mg/kg
CC(c1ccccc1)C1NC(=O)CNC(=O)C(CO)NC(=O)C(C(O)C2CN(Cc3ccc4ccccc4c3)C(=N)N2C2OC(CO)C(O)C(O)C2O)NC(=O)C(C(O)C2CNC(=N)N2)NC(=O)C(Cc2ccc(OC3OC(CO)C(OC4OC5COC6(OC5C(O)C4O)C4CC5CC(C4)CC6C5)C(O)C3O)cc2)NC1=O (stereo not shown) [Example 78],"Anatomical Pathology (Day 10), Heart",[1],0
same,"Anatomical Pathology (Day 10), Kidney",[1],++
same,MIC Enterococcus faecalis (GC 2242),"Enterococcus sp.; Enterococcus faecalis (GC 2242), broth dilution, 18 hours at 35° C.",16 µg/mL
same,MIC Enterococcus faecalis (GC 2691),"Enterococcus sp.; Enterococcus faecalis (GC 2691), broth dilution, 18 hours at 35° C.",16 µg/mL
same,MIC Enterococcus faecalis (GC 3059),"Enterococcus sp.; Enterococcus faecalis (GC 3059), broth dilution, 18 hours at 35° C.",16 µg/mL
same,MIC Enterococcus faecalis (ATCC 29212),Enterococcus sp.; strain ATCC 29212,8 µg/mL
same,MIC Enterococcus faecalis (GC 2242),Enterococcus sp.; strain GC 2242,16 µg/mL
same,MIC Enterococcus faecium (GC 2243),Enterococcus sp.; strain GC 2243,8 µg/mL
same,MIC Enterococcus faecalis (GC 2691),Enterococcus sp.; strain GC 2691,16 µg/mL
same,MIC Enterococcus faecalis (GC 3059),Enterococcus sp.; strain GC 3059,16 µg/mL
same,MIC Enterococcus faecalis (GC 4552),Enterococcus sp.; strain GC 4552,8 µg/mL
same,MIC Enterococcus faecalis (GC 4553),Enterococcus sp.; strain GC 4553,8 µg/mL
same,MIC Enterococcus faecalis (GC 4554),Enterococcus sp.; strain GC 4554,16 µg/mL
same,MIC Enterococcus faecium (GC 4556),Enterococcus sp.; strain GC 4556,16 µg/mL
same,MIC Enterococcus faecium (GC 4557),Enterococcus sp.; strain GC 4557,2 µg/mL
same,MIC Enterococcus avium (GC 4558),Enterococcus sp.; strain GC 4558,4 µg/mL
same,MIC Enterococcus faecalis (GC 6189),Enterococcus sp.; strain GC 6189,16 µg/mL
same,MIC Streptococcus agalactiae (GC 4564),"Streptococcus sp.; Streptococcus agalactiae (GC 4564), broth dilution, 18 hours at 35° C.",1 µg/mL
same,MIC Streptococcus pneumoniae (ATCC 6301),"Streptococcus sp.; Streptococcus pneumoniae (ATCC 6301), broth dilution, 18 hours at 35° C.",1 µg/mL
same,MIC Streptococcus pneumoniae (GC 1894),"Streptococcus sp.; Streptococcus pneumoniae (GC 1894), broth dilution, 18 hours at 35° C.",0.25 µg/mL
same,MIC Streptococcus pneumoniae (GC 4565),"Streptococcus sp.; Streptococcus pneumoniae (GC 4565), broth dilution, 18 hours at 35° C.",2 µg/mL
same,MIC Streptococcus pyogenes (GC 4563),"Streptococcus sp.; Streptococcus pyogenes (GC 4563), broth dilution, 18 hours at 35° C.",0.5 µg/mL
same,MIC Streptococcus pneumoniae (ATCC 6301),Streptococcus sp.; strain ATCC 6301,1 µg/mL
same,MIC Streptococcus pneumoniae (GC 1894),Streptococcus sp.; strain GC 1894,0.25 µg/mL
same,MIC Streptococcus pyogenes (GC 4563),Streptococcus sp.; strain GC 4563,0.5 µg/mL
same,MIC Streptococcus agalactiae (GC 4564),Streptococcus sp.; strain GC 4564,1 µg/mL
same,MIC Streptococcus pneumoniae (GC 4565),Streptococcus sp.; strain GC 4565,2 µg/mL
same,MIC Coagulase Negative Staphylococcus (GC 4547),Staphylococcus sp.; broth dilution,4 µg/mL
same,MIC Coagulase Negative Staphylococcus (GC 4548),Staphylococcus sp.; broth dilution,4 µg/mL
same,MIC Coagulase Negative Staphylococcus (GC 4549),Staphylococcus sp.; broth dilution,8 µg/mL
same,MIC Coagulase Negative Staphylococcus (GC 4551),Staphylococcus sp.; broth dilution,8 µg/mL
same,MIC Coagulase Negative Staphylococcus (GC 6257),Staphylococcus sp.; broth dilution,2 µg/mL
same,MIC Staphylococcus aureus (ATCC 29213),Staphylococcus sp.; broth dilution,8 µg/mL
same,MIC Staphylococcus aureus (GC 1131),Staphylococcus sp.; broth dilution,8 µg/mL
same,MIC Staphylococcus aureus (GC 3051),Staphylococcus sp.; broth dilution,8 µg/mL
same,MIC Staphylococcus aureus (GC 3053),Staphylococcus sp.; broth dilution,8 µg/mL
same,MIC Staphylococcus aureus (GC 4541),Staphylococcus sp.; broth dilution,4 µg/mL
same,MIC Staphylococcus aureus (GC 4542),Staphylococcus sp.; broth dilution,8 µg/mL
same,MIC Staphylococcus aureus (GC 4544),Staphylococcus sp.; broth dilution,8 µg/mL
same,MIC Staphylococcus aureus (GC 4545),Staphylococcus sp.; broth dilution,8 µg/mL
same,MIC Staphylococcus aureus SMITH (GC 4543),Staphylococcus sp.; broth dilution,4 µg/mL
same,MIC Staphylococcus haemolyticus (GC 4546),Staphylococcus sp.; broth dilution,4 µg/mL
same,MIC Staphylococcus aureus-SMITH (GC 4543),"Staphylococcus sp.; strain SMITH GC 4543, broth dilution",4 µg/mL
same,MIC Escherichia coli (GC 4560),Escherichia coli; strain GC 4560,4 µg/mL
same,"median effective dose (ED50), Staphylococcus aureus-SMITH (GC 4543)",[2],2 mg/kg
